Test results taken from patent publication US4072689A, “Monoamino 2,4,5-trisubstituted oxazoles” (Gruppo Lepetit S.p.A., priority 1975, dated 1978).

Assays:
[1] = acute toxicity, LD50 p.o. mice; conditions: mouse, in vivo, po
[2] = test system: carrageenin induced edema; assay: carrageenin-induced edema test, oral administration; type: in vivo, rats; conditions: mice
Method: The compounds of the invention have antiinflammatory activity. […] The compounds are orally administered at dosages varying from 10 to 200 mg/kg. and the observed percent decreases of the induced edema are between about 30 and about 65. The acute toxicity of these compounds is ordinarily very low, almost always being higher than 1000 mg/kg. Moreover the compounds of this invention are much less ulcerogenic than other known and wisely used anti-inflammatories, such as, for example, phenylbutazone.

SMILES | LD50 [1] [mg/kg] | Percent inhibition of carrageenin induced edema ([2]; dose 50 mg/kg p.o.) [%] | Percent inhibition of carrageenin induced edema ([2]; dose 100 mg/kg p.o.) [%] | Percent inhibition of carrageenin induced edema ([2]; dose 200 mg/kg p.o.) [%]
Cc1nc(-c2ccccc2)oc1C(N)=O [Example 1, 5-Carbamoyl-4-methyl-2-phenyloxazole] | > 1000 | 30 | 43 | 64
Cc1oc(-c2ccccc2)nc1C(N)=O [Example 2, 4-Carbamoyl-5-methyl-2-phenyloxazole] | > 1000 | 29 | 42 | 53
